Test systems include COLO 205; HL-60; HOP-62; IGROV-1; K562; NCI-H460; OVCAR-8; RPMI-8226; SF-295; SNB-19; T47D; U-251; UACC-257; UACC-62; NCI-H226; OVCAR-4; SF-268; SNB-75; DU-145.
Experiment in all cases: DTP human tumour cell line panel, 48 h

Values joined by “and” are separate entries in the source; they are usually repeats but may differ in a detail not shown here. Equal entries are not always repeated.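 Step 1: Grow cells in 96-well plates. Step 2: Expose to compound for 48 hours at 5 concentrations. Step 3: Interpolate endpoints linearly; if unreached, use highest concentration. GI50 is the concentration that inhibits growth by half.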 Active and inactive are the calls of the source. No stated cut-off is given here; in the data, active = GI50 up to about 1.1 µM and inactive = higher.

As a reminder, the GI50 is the concentration giving 50% growth inhibition. Take `O=C1C=CC(=O)c2c(NCC3CC3)ccc(NCC3CC3)c21`: the GI50 in the assay with COLO 205 is 19.7 µM (inactive); in the assay with HL-60 it was 11 µM (inactive); with HOP-62, > 100 µM (inactive); with IGROV-1 it was 47.9 µM (inactive); in the assay with K562 it was 22.5 µM (inactive); with NCI-H460, 60.8 µM (inactive). Besides, the GI50 with OVCAR-8 is 56.2 µM (inactive); in the assay with RPMI-8226, 17.1 µM (inactive); in the assay with SF-295, 33.7 µM (inactive); in the assay on SNB-19, > 100 µM (inactive); in the assay with T47D, 6.34 µM (inactive); with U-251, 55.7 µM (inactive). In addition, the results for the GI50 in the assay with UACC-257 and in the assay on UACC-62 were 29.3 µM (inactive) and 18.3 µM (inactive), respectively.
Take `N=C(N)Nc1nc2cc(N)ccc2o1`: the GI50 in the assay on HL-60, in the assay on HOP-62, with K562, in the assay with NCI-H226, in the assay on NCI-H460 and in the assay with OVCAR-4 was > 100 µM (inactive) each time. The GI50 with OVCAR-8, with SF-268, in the assay on SF-295, with SNB-19, in the assay with SNB-75 and in the assay with U-251 was > 100 µM (inactive) in each case. The GI50 in the assay on UACC-257 and in the assay on UACC-62 was > 100 µM (inactive) in each case.
As to `CC(=O)N1C(=O)/C(=C\C(=O)c2ccc([N+](=O)[O-])cc2)c2ccccc21`, the GI50 was 18.8 µM (inactive) with COLO 205; 67 µM (inactive) in the assay on DU-145; 36.4 µM (inactive) with HOP-62; 21.4 µM (inactive) in the assay with IGROV-1; 9.18 µM (inactive) in the assay on K562; > 100 µM (inactive) in the assay on NCI-H226. Also, the GI50 in the assay on NCI-H460 is 20.1 µM (inactive); in the assay on OVCAR-4, 14.4 µM (inactive); in the assay with OVCAR-8, 47.5 µM (inactive); in the assay with SF-268, 22.6 µM (inactive); with SF-295 it was > 100 µM (inactive); with SNB-19 it was 43.2 µM (inactive). The GI50 in the assay with SNB-75 is 21.9 µM (inactive); in the assay with T47D, 20.5 µM (inactive); in the assay with U-251 it was 21.1 µM (inactive); in the assay with UACC-257, 19 µM (inactive); with UACC-62 it was 18.4 µM (inactive).
On to `COc1cc(-c2c(C(C)=O)c(-c3ccccc3)n(C3OC(COC(C)=O)C(OC(C)=O)C(OC(C)=O)C3OC(C)=O)c(=S)c2C#N)ccc1O` (stereo not drawn), for which the GI50 in the assay on COLO 205 was 97.1 µM (inactive); with DU-145 it was 55.3 µM (inactive) and 58.1 µM (inactive); in the assay with HOP-62 it was > 100 µM (inactive); in the assay with K562 it was > 100 µM (inactive); with NCI-H460, 75.5 µM (inactive); with OVCAR-4, > 100 µM (inactive). Moreover, the GI50 is > 100 µM (inactive) in the assay with SF-268; > 100 µM (inactive) in the assay on SF-295; > 100 µM (inactive) with SNB-19; > 100 µM (inactive) with U-251; 59.2 µM (inactive) in the assay with UACC-62.
For `CC1=C/C(=N/N2C(=O)/C(=C/c3ccc(Cl)cc3)N=C2c2ccccc2)CC(C)(C)C1`, the GI50 in the assay with COLO 205 was > 100 µM (inactive); in the assay on HOP-62 it was 54.2 µM (inactive); in the assay with IGROV-1, 52.1 µM (inactive); with K562, 66.4 µM (inactive); with NCI-H226, 90.2 µM (inactive); in the assay with NCI-H460, > 100 µM (inactive). The GI50 in the assay on OVCAR-4 is 45.9 µM (inactive); in the assay on OVCAR-8, 32.7 µM (inactive); with RPMI-8226, 20.9 µM (inactive); with SF-268 it was 73.3 µM (inactive); in the assay with SF-295, 51.9 µM (inactive); in the assay with SNB-19, 65.5 µM (inactive). Besides, the GI50 in the assay with SNB-75 was 31.5 µM (inactive); in the assay on T47D, 85.9 µM (inactive); in the assay on U-251, 21.5 µM (inactive); in the assay on UACC-257, 69.2 µM (inactive); in the assay on UACC-62, 61.9 µM (inactive).
Regarding `O=C1Nc2c(Cl)cc(Cl)cc2/C1=N/N=C/c1ccccc1O`, the GI50 with COLO 205 is 16.4 µM (inactive); in the assay on HL-60 it was 21.1 µM (inactive); in the assay on HOP-62 it was 17.2 µM (inactive); with IGROV-1, 26.1 µM (inactive); in the assay with K562, 21.2 µM (inactive); in the assay with NCI-H226 it was 27.2 µM (inactive). For the same molecule, the GI50 in the assay on NCI-H460 was 14.7 µM (inactive); in the assay on OVCAR-4, 27.6 µM (inactive); with OVCAR-8, 21.4 µM (inactive); in the assay with SF-295, 22.5 µM (inactive); with SNB-19 it was 61.8 µM (inactive); in the assay with SNB-75, 23.5 µM (inactive). Moreover, the GI50 in the assay with U-251 was 17.2 µM (inactive); in the assay on UACC-257, 23.5 µM (inactive); in the assay with UACC-62, 17.2 µM (inactive).
For the molecule `C/C(=N\NC(N)=O)C(CN1CCOCC1)C(c1ccccc1)c1c(O)c2ccccc2oc1=O` (stereo not drawn), the GI50 with COLO 205, in the assay on DU-145, in the assay with HL-60, in the assay on IGROV-1, in the assay on K562 and in the assay with NCI-H226 was > 100 µM (inactive) throughout. Besides, the GI50 with OVCAR-4, in the assay with OVCAR-8, with RPMI-8226, in the assay on SF-268, with SNB-19 and with SNB-75 was > 100 µM (inactive) throughout. The GI50 in the assay on U-251, with UACC-257 and in the assay on UACC-62 was > 100 µM (inactive) throughout.
On to `CCc1ccccc1NC(=O)C(=O)C(C#N)c1ccccc1Cl` (stereo not drawn), for which the GI50 is > 100 µM (inactive) in the assay with COLO 205; > 100 µM (inactive) with HL-60; > 100 µM (inactive) with HOP-62; > 100 µM (inactive) in the assay on IGROV-1; > 100 µM (inactive) in the assay on NCI-H226; 16.9 µM (inactive) with NCI-H460. Moreover, the GI50 in the assay on OVCAR-4, in the assay on OVCAR-8, with RPMI-8226, in the assay on SF-268, in the assay on SF-295 and in the assay with SNB-19 was > 100 µM (inactive) throughout. The GI50 with SNB-75, with U-251, with UACC-257 and in the assay on UACC-62 was > 100 µM (inactive) each time.
As to `CC(C)N1CCCOC(c2ccc([N+](=O)[O-])cc2)O1` (stereo not drawn), the GI50 in the assay with COLO 205, in the assay on DU-145, with HOP-62, with IGROV-1, in the assay on K562 and with NCI-H226 was > 100 µM (inactive) each time. In addition, the GI50 is > 100 µM (inactive) in the assay on NCI-H460; > 100 µM (inactive) in the assay with OVCAR-4; > 100 µM (inactive) in the assay with OVCAR-8; > 100 µM (inactive) in the assay with SF-268; > 100 µM (inactive) in the assay with SF-295; > 10 µM (inactive) in the assay with SNB-19. For the same molecule, the GI50 in the assay with SNB-75, in the assay with T47D, with U-251, with UACC-257 and with UACC-62 was > 100 µM (inactive) each time.
As for `CN(C)c1ccc(C=c2c3cc(O)ccc3n3c2cc(-c2ccccc2)[n+]3C)cc1`, the concentration for 50% growth inhibition (GI50) was 0.452 µM (active) in the assay with COLO 205; 1.92 µM (inactive) in the assay on DU-145; 0.254 µM (active) in the assay on HL-60; 1.81 µM (inactive) in the assay on HOP-62; 0.281 µM (active) in the assay on IGROV-1; 0.428 µM (active) in the assay on K562. Further, the GI50 with NCI-H226 was 1.66 µM (inactive); with OVCAR-4, 3.28 µM (inactive); in the assay with OVCAR-8, 0.76 µM (active); with RPMI-8226 it was 0.282 µM (active); with SF-268, 0.446 µM (active); with SF-295, 3.78 µM (inactive). Besides, the 50% growth inhibitory concentration (GI50) in the assay with SNB-19 is 0.369 µM (active); in the assay on SNB-75, 0.468 µM (active); in the assay with U-251, 0.317 µM (active); in the assay on UACC-257, 1.08 µM (active); in the assay on UACC-62, 1.36 µM (inactive).
As for `CC(=O)c1cccc(NC(=O)C(=O)c2c(O)oc3ccccc3c2=O)c1`, the GI50 in the assay on HL-60 is 10 µM (inactive); in the assay on HOP-62 it was > 100 µM (inactive); with IGROV-1, > 100 µM (inactive); in the assay on K562 it was > 100 µM (inactive); in the assay on NCI-H226, > 100 µM (inactive); in the assay with NCI-H460 it was > 100 µM (inactive). Also, the GI50 in the assay with OVCAR-4, in the assay on OVCAR-8, in the assay on RPMI-8226, with SF-268, with SF-295 and with SNB-19 was > 100 µM (inactive) in each case. In addition, the GI50 in the assay on SNB-75, with T47D, in the assay with U-251, in the assay on UACC-257 and with UACC-62 was > 100 µM (inactive) throughout.
`CN1N=CSC12C(=O)N(c1ccc(Cl)cc1)C(=O)N2c1ccc(Cl)cc1` (stereo not drawn): the GI50 is 1.93 µM (inactive) in the assay on COLO 205; 2.13 µM (inactive) in the assay on HL-60; 3.69 µM (inactive) in the assay on HOP-62; 5.05 µM (inactive) with IGROV-1; 2.99 µM (inactive) with K562; 3.04 µM (inactive) in the assay with NCI-H226. Moreover, the GI50 with NCI-H460 was 3.27 µM (inactive); in the assay with OVCAR-4, 5.24 µM (inactive); in the assay on OVCAR-8 it was 3.51 µM (inactive); with RPMI-8226 it was 2.6 µM (inactive); in the assay with SF-268, 5.41 µM (inactive); with SF-295 it was 3.28 µM (inactive). The GI50 was 3.82 µM (inactive) with SNB-19; 3.99 µM (inactive) in the assay on SNB-75; 3.67 µM (inactive) in the assay with U-251; 3.15 µM (inactive) in the assay on UACC-257; 3.36 µM (inactive) in the assay on UACC-62.
On to `CN(C)c1ccc(/C=C(\NC(=O)c2ccccc2)c2nc3cncnc3[nH]2)cc1`, for which the GI50 with COLO 205, in the assay with HL-60, in the assay with IGROV-1, in the assay on K562, in the assay on OVCAR-4 and with OVCAR-8 was > 100 µM (inactive) in each case. In addition, the GI50 with SF-268, in the assay on SF-295, in the assay on SNB-19, in the assay with U-251 and in the assay with UACC-62 was > 100 µM (inactive) throughout.
